Measured values: publication PMC8699473, “An Easily Expandable Multi-Drug LC-MS Assay for the Simultaneous Quantification of 57 Oral Antitumor Drugs in Human Plasma” (Cancers, 2021)

How the values were obtained:
[1] = Short-term stability in spiked pooled human plasma (bench-top, 4 °C, 56 °C)
[2] = Long-term stability in spiked pooled human plasma
[3] = Autosampler stability of ready for injection samples; type: physicochemical, human
[4] = Freeze-thaw stability in spiked pooled human plasma; type: physicochemical
[5] = Plasma concentrations in patients on oral antitumor therapy (LC-MS); type: in vivo, human; settings: patient plasma, all samples; r.c. = respective cmin
From the text: The liquid chromatography-mass spectrometer system consisted of a Thermo Scientific Dionex UltiMate^TM 3000 with an integrated and temperature controlled autosampler (Thermo Fisher Scientific, Dreieich, Germany). An Acquity UPLC® BEH C18 column (2.1 × 100 mm, 1.7 µm; Waters, Milford, CT, USA) equipped with an Acquity UPLC® BEH C18 VanGuard^TM Pre-Column (2.1 × 5 mm, 1.7 µm; Waters, Milford, CT, USA) was used for chromatographic separation. The Q-Exactive^TM Focus mass spectrometer (MS) was hyphenated with a heated electrospray ionization (HESI) source (both from Thermo Fisher Scientific, Dreieich, Germany).
Chromatographic separation was achieved using a gradient elution with water containing 0.5% (v/v) FA (eluent A) and MeOH with 0.1% (v/v) FA (eluent B). The injection volume was 5 µL. The gradient program is shown in Supplement Table S2. The flow rate was 0.5 mL/min with a total run time of 15 min. The column heater was maintained at 50 °C and the autosampler temperature was 4 °C.
The following MS and HESI settings were maintained for all analyses: Sheath gas, auxiliary gas, and sweep gas flow rates were set to 60, 20, and 0, respectively. The spray voltage was 4000 V. Both capillary and auxiliary gas heater temperatures were set to 400 °C. High-purity nitrogen gas was used for the HESI source gases and for the bath gas of the C-trap. […] The HESI source was configured in positive mode for ionization.
The stock solutions were stored in glass vials at −80 °C. Aliquots of all stock solutions were combined in ACN (volumes of individual stock solution solvents are negligible) to obtain a standard solution of all analytes with an individual concentration of 200% of the respective trough level (cmin). Eight individual working standards were prepared by stepwise dilution of this standard solution with concentrations from 10 to 200% cmin (shown in Supplement Table S3). Furthermore, the four individual IS stock solutions were combined and diluted to 50 ng/mL with ACN. Calibration and validation standards were prepared by spiking 50 µL pooled human plasma with 10 µL of the respective working solution. Next, 250 µL IS solution (50 ng/mL in ACN) were added and vortexed vigorously. […] Then, 100 µL supernatant were transferred to 300 µL HPLC insert glass vials and diluted with 100 µL eluent (90% A/10% B). For blank samples, 50 µL pooled human plasma were combined with 10 µL ACN (instead of working solution) and prepared as described above. The calibration and validation standards were freshly prepared before every run. Patient plasma samples were prepared as calibration and validation standards (no additional processing step necessary), except for adding 10 µL ACN instead of 10 µL working standard. Before sample preparation, the frozen plasma samples were thawed in absence of light at 4 °C.
Blood samples were collected over the entire dosing interval from patients treated with an oral anticancer drug as listed in Supplement Table S4. […] A maximum of two samples at two different time points throughout the entire dosing interval were collected per patient. Treatment duration before collection was at least five half-lives (depending on the specific oral anticancer drug). The samples were collected in K3-EDTA tubes.
A total of 71 blood samples from 39 patients treated with 14 different oral anticancer drugs were collected (see Supplement Table S4 for details). All patients were recruited from independent outpatient clinics associated with the Comprehensive Cancer Center of the University Hospital Erlangen (CCC Erlangen-EMN). Of 71 blood samples, 41 were taken ±4 h of trough level (cmin).

[6] = parameters: method as in supplement references [1-55] as printed per drug; settings: minimum steady-state blood plasma concentration after multiple dose administration; ref supplement references [1-55] per drug; cited from earlier work

Compound: CC(C)(C)c1nc(-c2cccc(NS(=O)(=O)c3c(F)cccc3F)c2F)c(-c2ccnc(N)n2)s1 [Dabrafenib]
- light sensitivity ([1]; acceptance limit <85%): no losses of concentrations below the acceptance limit
- Short-time stability (1h, 56°C) Accuracy [%] ([1]; validation standard 2xLLOV): 46.2%
- Short-time stability (24h, 4°C, without daylight) Accuracy [%] ([1]; validation standard 2xLLOV): 99.6%
- Short-time stability (24h, RT, with daylight) Accuracy [%] ([1]; validation standard 2xLLOV): 98.0%
- Short-time stability (24h, RT, without daylight) Accuracy [%] ([1]; validation standard 2xLLOV): 107.6%
- Short-time stability (1h, 56°C) Accuracy [%] ([1]; validation standard LLOV): 42.8%
- Short-time stability (24h, 4°C, without daylight) Accuracy [%] ([1]; validation standard LLOV): 112.7%
- Short-time stability (24h, RT, with daylight) Accuracy [%] ([1]; validation standard LLOV): 97.0%
- Short-time stability (24h, RT, without daylight) Accuracy [%] ([1]; validation standard LLOV): 108.2%
- Short-time stability (1h, 56°C) Accuracy [%] ([1]; validation standard MOV): 42.4%
- Short-time stability (24h, 4°C, without daylight) Accuracy [%] ([1]; validation standard MOV): 100.0%
- Short-time stability (24h, RT, with daylight) Accuracy [%] ([1]; validation standard MOV): 97.7%
- Short-time stability (24h, RT, without daylight) Accuracy [%] ([1]; validation standard MOV): 99.3%
- Short-time stability (1h, 56°C) Accuracy [%] ([1]; validation standard ULOV): 35.6%
- Short-time stability (24h, 4°C, without daylight) Accuracy [%] ([1]; validation standard ULOV): 94.0%
- Short-time stability (24h, RT, with daylight) Accuracy [%] ([1]; validation standard ULOV): 100.2%
- Short-time stability (24h, RT, without daylight) Accuracy [%] ([1]; validation standard ULOV): 99.7%
- Long-term stability, 1 month, -20°C Accuracy [%] ([2]; validation standard 2xLLOV): 101.2%
- Long-term stability, 1 month, -80°C Accuracy [%] ([2]; validation standard 2xLLOV): 93.1%
- Long-term stability, 2 month, -20°C Accuracy [%] ([2]; validation standard 2xLLOV): 98.6%
- Long-term stability, 2 month, -80°C Accuracy [%] ([2]; validation standard 2xLLOV): 101.3%
- Long-term stability, 3 month, -20°C Accuracy [%] ([2]; validation standard 2xLLOV): 96.6%
- Long-term stability, 3 month, -80°C Accuracy [%] ([2]; validation standard 2xLLOV): 101.7%
- Long-term stability, 6 weeks, 4°C, without daylight Accuracy [%] ([2]; validation standard 2xLLOV): 107.2%
- Long-term stability, 1 month, -20°C Accuracy [%] ([2]; validation standard LLOV): 101.0%
- Long-term stability, 1 month, -80°C Accuracy [%] ([2]; validation standard LLOV): 96.1%
- Long-term stability, 2 month, -20°C Accuracy [%] ([2]; validation standard LLOV): 99.0%
- Long-term stability, 2 month, -80°C Accuracy [%] ([2]; validation standard LLOV): 97.9%
- Long-term stability, 3 month, -20°C Accuracy [%] ([2]; validation standard LLOV): 97.1%
- Long-term stability, 3 month, -80°C Accuracy [%] ([2]; validation standard LLOV): 96.6%
- Long-term stability, 6 weeks, 4°C, without daylight Accuracy [%] ([2]; validation standard LLOV): 102.4%
- Long-term stability, 1 month, -20°C Accuracy [%] ([2]; validation standard MOV): 96.1%
- Long-term stability, 1 month, -80°C Accuracy [%] ([2]; validation standard MOV): 92.3%
- Long-term stability, 2 month, -20°C Accuracy [%] ([2]; validation standard MOV): 97.8%
- Long-term stability, 2 month, -80°C Accuracy [%] ([2]; validation standard MOV): 98.9%
- Long-term stability, 3 month, -20°C Accuracy [%] ([2]; validation standard MOV): 100.3%
- Long-term stability, 3 month, -80°C Accuracy [%] ([2]; validation standard MOV): 98.0%
- Long-term stability, 6 weeks, 4°C, without daylight Accuracy [%] ([2]; validation standard MOV): 107.2%
- Long-term stability, 1 month, -20°C Accuracy [%] ([2]; validation standard ULOV): 97.0%
- Long-term stability, 1 month, -80°C Accuracy [%] ([2]; validation standard ULOV): 92.2%
- Long-term stability, 2 month, -20°C Accuracy [%] ([2]; validation standard ULOV): 97.4%
- Long-term stability, 2 month, -80°C Accuracy [%] ([2]; validation standard ULOV): 98.0%
- Long-term stability, 3 month, -20°C Accuracy [%] ([2]; validation standard ULOV): 96.3%
- Long-term stability, 3 month, -80°C Accuracy [%] ([2]; validation standard ULOV): 98.6%
- Long-term stability, 6 weeks, 4°C, without daylight Accuracy [%] ([2]; validation standard ULOV): 100.6%
- Autosampler (24h, 4°C) Accuracy [%] ([3]; validation standard 2xLLOV): 97.9%
- Autosampler (72h, 4°C) Accuracy [%] ([3]; validation standard 2xLLOV): 99.3%
- Autosampler (24h, 4°C) Accuracy [%] ([3]; validation standard LLOV): 93.5%
- Autosampler (72h, 4°C) Accuracy [%] ([3]; validation standard LLOV): 93.1%
- Autosampler (24h, 4°C) Accuracy [%] ([3]; validation standard MOV): 102.1%
- Autosampler (72h, 4°C) Accuracy [%] ([3]; validation standard MOV): 99.8%
- Autosampler (24h, 4°C) Accuracy [%] ([3]; validation standard ULOV): 100.7%
- Autosampler (72h, 4°C) Accuracy [%] ([3]; validation standard ULOV): 101.4%
- Freeze-Thaw Accuracy [%] ([4]; validation standard 2xLLOV): 97.8%
- Freeze-Thaw Accuracy [%] ([4]; validation standard LLOV): 93.9%
- Freeze-Thaw Accuracy [%] ([4]; validation standard MOV): 99.0%
- Freeze-Thaw Accuracy [%] ([4]; validation standard ULOV): 97.6%
- Median Concentration of All Samples [% of r.c.] [5]: 722.3 % of r.c.
- Min–Max Concentration [% of r.c.] [5]: 455.8–988.8 % of r.c.
- cmin [6]: 46.6 ng/mL
